From patent publication US8546404B2, “Compounds that are ERK inhibitors” (Merck Sharp & Dohme, priority 2005, dated 2013)
pIC50: −log10 of the molar value.

What was measured:
[1] = Cassette Accelerating Rapid Rat Screen (CARRS), AUC during the first 6 hours; type: in vivo, Male Sprague-Dawley rats; conditions: male, Sprague-Dawley, plasma, 10 mg/kg, PO, AUC during the first 6 hours (AUC6hr)
Method: The AUC (Area Under the Concentration-Time Curve During the First 6 Hours (AUC6hr) in Table 30 Below was Determined Using the Protocol of Cassette Accelerating Rapid Rat Screen (CARRS)
Animal Dosing and Sample Collection
Male Sprague-Dawley rats (Charles River, Co.) were pre-cannulated (femoral artery) in order to facilitate precise blood sampling times, and to reduce the stress on the animals caused by serial bleedings. Following an overnight fast, two rats were dosed orally with one compound at a dose of 10 mg/kg in a 5-mL/kg dose volume. Blood was collected into heparin-containing tubes serially from each animal at 0.5, 1, 2, 3, 4 and 6 h post-dosing and centrifuged to generate plasma. Approximately 100 μL of plasma were collected at the individual time points. The plasma samples were stored at −20° C. until analysis.
Plasma Sample and Standard Curve Preparation
A set of 12 rat plasma samples was generated for each NCE (i.e. 6 timepoints and n=2 rats). These 12 samples were pooled across the two rats at each timepoint to provide 6 pooled samples (one sample per time point) for each NCE. The pooled samples were assayed as cassettes of six (36 samples total) to provide data on the six compounds. The 50-μL aliquots of the 36 plasma samples were placed into individual wells of a 96-well plate. An additional compound (often a structural analog of the test compounds) was selected as the internal standard. A mini-calibration curve was prepared (three points plus a zero) for each compound assayed. Drug-free rat plasma was measured into 1-mL aliquots and each aliquot was spiked with known concentrations of the compounds to generate standards of the desired concentrations. The concentrations of the standards were chosen to bracket the expected concentration of the pooled samples based on historical data from previous studies on other compounds. For this work, the standards were set to contain concentrations of 25, 250 and 2500 ng NCE/mL plasma. The plasma standards were precipitated in duplicate along with the samples. Protein precipitation occurred after addition of 150 μL of acetonitrile containing the internal standard at a concentration of 1 ng/mL into each sample well using the Tomtec Quadra 96 system. The precipitated samples and standards were vortexed and centrifuged in the 96-well plate. Approximately 50-100 μL of the supernatant were removed and placed into a fresh 96-well plate using the Tomtec Quadra 96 system. A volume of 5-10 μL of the supernatant was used for analysis by HPLC-MS/MS. The mini-standard curve was run in duplicate, once before and once after the samples. Thus, a total of 14 study samples plus standards were analyzed per compound. In addition, solvent blanks were injected before and after each set of 14 and after the highest calibration standard for each compound; therefore, a total of 103 injections were made into each HPLC system for each set of six compounds. Multiple solvent blank injections could be made from a single well. Twelve solvent blank wells were designated in each 96-well plate. Thus, one batch (cassette) of six NCEs was prepared and assayed using one 96-well plate format.
All the compounds were analyzed using selected reaction monitoring (SRM) methods with LC/MS/MS instruments. Once the method development had been completed, the assay was quickly set up using a standard injection sequence template for the CARRS assay.

[2] = biological target: fully phosphorylated, active Mouse ERK2 protein (Mus musculus (Mouse), UniProt P63085); assay: Active ERK2 Assay (IMAP format); type: biochemical; conditions: read-out: AERK2 IC50
Method: Activated ERK2 activity was also determined in the IMAP assay format using the procedure outlined above. […] Reactions proceeded for 30 minutes before termination by addition of 60 μl IMAP detection beads in binding buffer. Plates were read as above after 30 minute binding equilibration.

Chain of fully phosphorylated, active Mouse ERK2 protein (P63085 whole entry): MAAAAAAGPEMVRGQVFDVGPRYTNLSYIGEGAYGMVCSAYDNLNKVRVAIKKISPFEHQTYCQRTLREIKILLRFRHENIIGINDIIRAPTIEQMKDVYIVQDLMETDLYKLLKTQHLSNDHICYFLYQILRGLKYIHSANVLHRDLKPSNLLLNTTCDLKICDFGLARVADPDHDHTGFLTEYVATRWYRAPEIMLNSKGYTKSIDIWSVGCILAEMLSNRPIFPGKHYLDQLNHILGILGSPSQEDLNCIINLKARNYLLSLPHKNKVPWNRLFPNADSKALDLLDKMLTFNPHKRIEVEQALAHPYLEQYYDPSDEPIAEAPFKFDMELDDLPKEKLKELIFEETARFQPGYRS

| Structure (SMILES) | AUC [1] | pIC50 [2] |
| --- | --- | --- |
| CO[C@@]1(C(=O)Nc2ccc3[nH]nc(-c4ccnc(C5CC5)c4)c3c2)CCN(CC(=O)N2CC=C(c3ccc(-c4ncccn4)cc3)CC2)C1 [Example 459] | 1.2 µM·h | 8.60 |
| CO[C@@]1(C(=O)Nc2ccc3[nH]nc(-c4ccc(F)cc4)c3c2)CCN(CC(=O)N2CCC(c3ccc(-c4ncccn4)cc3)CC2)C1 [Example 479] | 2.2 µM·h | 8.04 |
| CCNc1nnc(-c2ccc(C3=CCN(C(=O)CN4CC[C@@](OC)(C(=O)Nc5ccc6[nH]nc(-c7ccc(F)cc7)c6c5)C4)CC3)c(F)c2)o1 [Example 622, 1-(2-{4-[4-(5-Ethylamino-[1,3,4]oxadiazol-2-yl)-2-fluoro-phenyl]-3,6-dihydro-2H-pyridin-1-yl}-2-oxo-ethyl)-3-methoxy-pyrrolidine-3-carboxylic acid [3-(4-fluoro-phenyl)-1 indazol-5-yl]-amide] | 1.13 µM·h | 8.30 |

Now from value to compound:

| AUC [1] | pIC50 [2] | Structure (SMILES) |
| --- | --- | --- |
| 25.9 µM·h | 8.00 | CS[C@@]1(C(=O)Nc2ccc3[nH]nc(-c4ccc(F)cc4)c3c2)CCN(CC(=O)N2CC=C(c3ccc(-c4ncccn4)cc3)CC2)C1 [Example 613] |
| 1.1 µM·h | 7.70 | CO[C@@]1(C(=O)Nc2ccc3[nH]nc(-c4ccc(F)cc4)c3c2)CCN(CC(=O)N2CC=C(c3ccc(-c4ncccn4)cc3F)CC2)C1 [Example 825] |
